Experimental findings from patent US8119669B2, “Substituted phenoxy N-alkylated thiazolidinediones as estrogen related receptor-α modulators” (Janssen Pharmaceutica N.V., priority 2007, dated 2012) are described below.

This experiment has as its target T1, ERR1 (also known as ERR-α or ERR-1) (Homo sapiens, UniProt P11474).
T1 sequence (P11474 193-421 limits assumed): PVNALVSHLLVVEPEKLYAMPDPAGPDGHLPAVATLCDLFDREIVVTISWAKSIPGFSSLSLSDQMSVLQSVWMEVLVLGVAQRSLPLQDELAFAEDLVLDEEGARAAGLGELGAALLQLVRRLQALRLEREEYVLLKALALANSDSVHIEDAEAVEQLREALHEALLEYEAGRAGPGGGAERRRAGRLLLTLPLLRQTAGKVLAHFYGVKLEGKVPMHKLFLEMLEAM
Description: TR-FRET Assay (disruption of co-activator peptide binding to ERR1 LBD). It counts as biochemical. To be noted: 6His-tagged ERR1 LBD 6 nM, GST-hSRC2 co-activator peptide 6 nM; 25° C., 4-18 hours; average of 3 independent experiments. On the procedure:
Time-Resolved Fluorescence Resonance Energy Transfer (TR-FRET) experiments were performed to examine the functional response of ERR1 (also known as ERR-α or ERR-1) ligands. The TR-FRET assay described herein relied on the conformation of ERR1 for binding to a co-activator peptide: when a test compound binds to ERR1 and alters its conformation, it can disrupt the binding of the co-activator peptide. The components of this homogeneous secondary assay included: the ^6His-tagged-ERR1LBD, a GST-labeled-hSRC2 co-activator polypeptide and a fluorescent donor/acceptor pair from CIS bio international htrf/bioassays (Bedford, Mass.) using both an α-GST Europium Cryptate (Eu) label and an α^6His-XL665 (allophycocyanin) fluorophore.
For TR-FRET measurements, the reaction was buffered in 25 mM Tris pH 8, 2.5 mM Hepes, 20 mM KCl, 1 mM DTT, and 0.05 mg/mL BSA (-lipids). The final concentrations of reagents were 6 nM of ERR1LBD, 6 nM GST-SRC-2 peptide, 30 nM Eu cryptate, and 7.5 nM XL665. Reactions were allowed to reach equilibrium at 25° C. for 4-18 hours before collecting data on the Analyst from LJL Biosystems (Molecular Devices Sunnyvale, Calif.). As a time-resolved method, the samples were excited at […] and emission was collected for 1 ms at both 615 and 665 nm with delays of 400 and 75 μs, respectively. Dose response curves were fitted using a hyperbolic equation and the data reported is the average of 3 independent experiments.
A general note: Time-resolved FRET reads energy transfer from a long-lived donor to a nearby acceptor.

Take `CCN(CC)CCN1C(=O)S/C(=C\c2ccc(Oc3ccc(C#N)cc3C(F)(F)F)c(OC)c2)C1=O` [Compound 7, 4-{4-[3-(2-Diethylamino-ethyl)-2,4-dioxo-thiazolidin-5-ylidenemethyl]-2-methoxy-phenoxy}-3-trifluoromethyl-benzonitrile]: the concentration for a half-maximal effect (EC50) (commonly the concentration needed to bring the measured effect to its halfway point) came out at 59 nM.

With `COc1cc(/C=C2\SC(=O)N(CCN3CCCCC3)C2=O)ccc1Oc1ccc(C#N)cc1C(F)(F)F` [Compound 9, 4-{4-[2,4-Dioxo-3-(2-piperidin-1-yl-ethyl)-thiazolidin-5-ylidenemethyl]-2-methoxy-phenoxy}-3-trifluoromethyl-benzonitrile], a half-maximal effect (EC50) was put at 33 nM. Under `COc1cc(/C=C2\SC(=O)N(CCn3cccc3)C2=O)ccc1Oc1ccc(C#N)cc1C(F)(F)F` [Compound 13, 4-{4-[2,4-Dioxo-3-(2-pyrrol-1-yl-ethyl)-thiazolidin-5-ylidenemethyl]-2-methoxy-phenoxy}-3-trifluoromethyl-benzonitrile] stands 86 nM; under `COc1cc(/C=C2\SC(=O)N(CCn3ccnc3)C2=O)ccc1Oc1ccc(C#N)cc1C(F)(F)F` [Compound 8, 4-{4-[3-(2-Imidazol-1-yl-ethyl)-2,4-dioxo-thiazolidin-5-ylidenemethyl]-2-methoxy-phenoxy}-3-trifluoromethyl-benzonitrile], 32 nM; under `COc1cc(/C=C2\SC(=O)N(CCN3CCN(C)CC3)C2=O)ccc1Oc1ccc(C#N)cc1C(F)(F)F` [Compound 4, 4-(2-Methoxy-4-{3-[2-(4-methyl-piperazin-1-yl)-ethyl]-2,4-dioxo-thiazolidin-5-ylidenemethyl}-phenoxy)-3-trifluoromethyl-benzonitrile], 320 nM. With `COc1cc(/C=C2\SC(=O)N(CCN3CCCCCC3)C2=O)ccc1Oc1ccc(C#N)cc1C(F)(F)F` [Compound 12, 4-{4-[3-(2-Azepan-1-yl-ethyl)-2,4-dioxo-thiazolidin-5-ylidenemethyl]-2-methoxy-phenoxy}-3-trifluoromethyl-benzonitrile], a half-maximal response (EC50) required 44 nM. The same measure for `N#Cc1ccc(Oc2ccc(/C=C3\SC(=O)N(CCN4CCCC4)C3=O)cc2F)c(C(F)(F)F)c1` [Compound 14, 4-{4-[2,4-Dioxo-3-(2-pyrrolidin-1-yl-ethyl)-thiazolidin-5-ylidenemethyl]-2-fluoro-phenoxy}-3-trifluoromethyl-benzonitrile]: 230 nM; for `N#Cc1ccc(Oc2ccc(/C=C3\SC(=O)N(CCN4CCOCC4)C3=O)cc2F)c(C(F)(F)F)c1` [Compound 6, 4-{2-Fluoro-4-[3-(2-morpholin-4-yl-ethyl)-2,4-dioxo-thiazolidin-5-ylidenemethyl]-phenoxy}-3-trifluoromethyl-benzonitrile]: 320 nM. Under `CN(C)CCN1C(=O)S/C(=C\c2ccc(Oc3ccc(C#N)cc3C(F)(F)F)c(F)c2)C1=O` [Compound 5, 4-{4-[3-(2-Dimethylamino-ethyl)-2,4-dioxo-thiazolidin-5-ylidenemethyl]-2-fluoro-phenoxy}-3-trifluoromethyl-benzonitrile] stands 360 nM; under `COc1cc(/C=C2\SC(=O)N(CCn3cncn3)C2=O)ccc1Oc1ccc(C#N)cc1C(F)(F)F` [Compound 11, 4-{4-[2,4-Dioxo-3-(2-[1,2,4]triazol-1-yl-ethyl)-thiazolidin-5-ylidenemethyl]-2-methoxy-phenoxy}-3-trifluoromethyl-benzonitrile], 24 nM.

With `COc1cc(/C=C2\SC(=O)N(CCN3CCOCC3)C2=O)ccc1Oc1ccc(C#N)cc1C(F)(F)F` [Compound 1, 4-{2-Methoxy-4-[3-(2-morpholin-4-yl-ethyl)-2,4-dioxo-thiazolidin-5-ylidenemethyl]-phenoxy}-3-trifluoromethyl-benzonitrile], the response was half-maximal at 20 nM (EC50).

Consider `COc1cc(/C=C2\SC(=O)N(CCN(C)C)C2=O)ccc1Oc1ccc(C#N)cc1C(F)(F)F` [Compound 2, 4-{4-[3-(2-Dimethylamino-ethyl)-2,4-dioxo-thiazolidin-5-ylidenemethyl]-2-methoxy-phenoxy}-3-trifluoromethyl-benzonitrile], for which the EC50 was determined as 39 nM. The same measure for `COc1cc(/C=C2\SC(=O)N(CCn3cccn3)C2=O)ccc1Oc1ccc(C#N)cc1C(F)(F)F` [Compound 10, 4-{4-[2,4-Dioxo-3-(2-pyrazol-1-yl-ethyl)-thiazolidin-5-ylidenemethyl]-2-methoxy-phenoxy}-3-trifluoromethyl-benzonitrile]: 59 nM.

`COc1cc(/C=C2\SC(=O)N(CCN3CCCC3)C2=O)ccc1Oc1ccc(C#N)cc1C(F)(F)F` [Compound 3, 4-{4-[2,4-Dioxo-3-(2-pyrrolidin-1-yl-ethyl)-thiazolidin-5-ylidenemethyl]-2-methoxy-phenoxy}-3-trifluoromethyl-benzonitrile] returned an EC50 of 42 nM.
